Assay results reported in patent US20060110376A1, “MDA-7 and free radicals in the treatment of cancer” (priority 2002, published 2006).

How the values were obtained:
[1] = system: RCC cell lines A498 and UOK121N; assay: MTT cell growth assay; type: cell-based, human; conditions: As2O3 0.5 μM; 96 h
Method: (§1) FIG. 25A-D. GST-MDA-7 causes a dose-dependent reduction in the proliferation of renal carcinoma cells but not primary renal epithelial cells. Cells were plated in 12 well plates (˜1×10^4 cells/well) and 24 h later treated with increasing concentrations of GST and GST-MDA-7 as indicated. Cell growth was determined via MTT assay 96 h after GST-MDA-7 treatment. Data are the means of 12 wells (one plate per condition, ±SEM) from a representative experiment using different preparations of GST-MDA-7 (n=3). Panel A. UOK121N cells. Panel B. A498 cells. Panel C. Primary renal epithelial cells. Panel D. Primary rat hepatocytes were isolated and cultured as described in Methods. Four hours after plating, hepatocytes were infected with either control CMV virus or Ad.mda-7 (at a multiplicity of infection of 50). […] Cell growth was determined via MTT assay 96 h after MDA-7 treatment. […]
(§2) FIG. 27A-C. […] Cell growth was determined via MTT assay 96 h after GST-MDA-7 treatment. […]
(§3) MTT Assay for Determination of Cellular Viability. […] The cytotoxicity of the various treatments was assessed four days after irradiation by measurement of cell viability by use of the MTT assay, as described previously (McKinstry et al., 2002, Cancer Biol. Ther. 1:243-253). The plates were read on a Dynatech MR600 Microplate Reader at 540 nm. […]

[2] = system: primary renal epithelial cells; assay: MTT cell growth assay; type: cell-based, human; conditions: low concentrations, each agent alone
Method: as §1, §2, §3

[3] = system: A498, UOK121N and primary renal epithelial cells; assay: MTT cell growth assay, arsenic trioxide alone; type: cell-based, human
Method: FIG. 26. Arsenic trioxide causes a concentration-dependent reduction in primary and renal carcinoma cell growth. Cells were plated in 12 well plates (˜1×10^4 cells/well) and 24 h later treated with increasing concentrations of As2O3 as indicated. Cell growth was determined via MTT assay 96 h after GST-MDA-7 treatment. Data are the means of 12 wells (one plate per condition, ±SEM) from a representative experiment using separate As2O3 formulations (n=3). Arsenic trioxide caused a dose-dependent enhancement in cell killing at higher concentrations >10 μM.
MTT Assay for Determination of Cellular Viability. The MTT test is based on the enzymatic reduction of the tetrazolium salt MTT in living, metabolically active cells but not in dead cells. Cells were plated (5-10,000 cells per well of a 12 well plate) and 24 h after plating treated with either GST or GST-MDA-7 at the indicated concentrations. Thirty minutes after protein treatment, cells were treated with arsenic trioxide at the indicated concentrations. The cytotoxicity of the various treatments was assessed four days after irradiation by measurement of cell viability by use of the MTT assay, as described previously (McKinstry et al., 2002, Cancer Biol. Ther. 1:243-253). The plates were read on a Dynatech MR600 Microplate Reader at 540 nm. […]

[4] = system: renal carcinoma cells (UOK121N, A498); assay: Clonogenic survival assay; type: cell-based, human; conditions: arsenic trioxide (0.5 μM) alone
Method: Panel A. UOK121N cells. Panel B. A498 cells. Cells were plated in 6 well plates (˜5×10^4 cells/well) and 24 h later treated with GST, GST-MDA-7 (both 0.5 nM) and As2O3 (0.5 μM) as indicated. Cells were isolated 96 h after GST-MDA-7 treatment and cell viability determined using trypan blue exclusion assay (see FIG. 28). Based on trypan blue negative viable cell values, 250, 500 and 2000 viable cells were re-plated in Linbro plates. The plating density for colony formation assays depended upon the prior treatment of the cells and data obtained in FIGS. 27 and 28. 10-14 days after plating, cells were fixed and stained with crystal violet. Colony formation was determined using visual counting, and a colony was defined as a group of >50 cells. Data are the means of 3 separate experiments (±SEM). * p<0.05 less than control cells; # p<0.05 less than As2O3 or GST-MDA-7 treated cells.
Cell Survival Analyses. Cells were assayed for the effect(s) of GST-MDA-7 and arsenic trioxide on cell survival. Cells were plated (10,000 cells per 60 mm dish) and 24 h after plating treated with GST-MDA-7 or GST. Thirty minutes later, cells were treated with arsenic trioxide. Ninety-six hours later, cells were isolated by trypsinization and viable trypan blue negative cells re-plated in 60 mm dishes at 250-1,000 cells per plate. […] Colonies that contain more than 50 cells were then counted. […]

[5] = system: normal cells (immortalized human astrocytes or melanocytes); assay: MTT viability assay; type: cell-based; conditions: Ad.mda-7 100 p.f.u./cell
Method: MTT Viability Assays. Cell viability was assessed by MTT assays as described (Lebedeva et al., 2000, Cancer Research 60:6052-6060). Briefly, cells were seeded in 96-well tissue culture plates (1.5×10^3 cells per well) and treated with various agents. At the indicated times, medium was removed, and fresh medium containing 0.5 mg/ml MTT was added to each well. The cells were incubated at 37° C. for 4 h and then an equal volume of solubilization solution (0.01N HCl in 10% SDS) was added to each well and mixed thoroughly. The optical density from the plates was read on a BioRad Microplate Reader Model 550 at 595 nm.

## arsenic trioxide
[1]
  effect of arsenic trioxide on growth suppression by GST-MDA-7: enhanced the growth suppressive effects of GST-MDA-7
[2]
  growth potential: Neither low concentrations of arsenic trioxide nor GST-MDA-7 alone altered the growth potential
[3]
  concentrations giving dose-dependent enhancement in cell killing: > 10 µM
[3]; 96 h
  concentration above which proliferation was dose-dependently reduced: above 1 μM
[4]
  clonogenicity: significantly reduced clonogenicity
[5]
  growth, combinational treatment with Ad.mda-7: does not affect growth of normal cells
